Experimental data taken from article PMC12524617, “Recombinant Production and Characterization of a Novel α-L-Fucosidase from Bifidobacterium castoris” (International Journal of Molecular Sciences, 2025).

Molecular target: T1, commercial T. maritima α-L-fucosidase (Thermotoga maritima, UniProt Q9WYE2)
T1 construct: gene TM_0306; commercial enzyme from Megazyme
T1 sequence (Q9WYE2 1-449): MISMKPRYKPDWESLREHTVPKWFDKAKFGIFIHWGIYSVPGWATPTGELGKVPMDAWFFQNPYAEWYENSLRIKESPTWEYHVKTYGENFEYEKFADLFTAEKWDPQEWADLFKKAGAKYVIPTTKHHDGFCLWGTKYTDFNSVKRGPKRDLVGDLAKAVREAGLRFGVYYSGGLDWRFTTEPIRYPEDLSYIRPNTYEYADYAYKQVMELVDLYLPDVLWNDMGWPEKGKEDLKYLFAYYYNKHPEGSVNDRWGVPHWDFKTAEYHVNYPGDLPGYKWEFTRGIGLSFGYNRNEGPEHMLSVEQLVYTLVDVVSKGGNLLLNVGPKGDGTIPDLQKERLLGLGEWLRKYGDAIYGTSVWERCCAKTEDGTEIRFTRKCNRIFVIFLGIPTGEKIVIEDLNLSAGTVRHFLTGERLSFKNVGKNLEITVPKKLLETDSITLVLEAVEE
Assay: p-nitrophenolate release, absorbance at […] nm
Format: biochemical
Details: positive control enzyme, 1 μg, same conditions, pH 3.0-8.0, 24-42 °C; activity only in figure

C[C@@H]1O[C@@H](Oc2ccc([N+](=O)[O-])cc2)[C@@H](O)[C@H](O)[C@@H]1O [pNP-Fuc, 4-Nitrophenyl-α-L-fucopyranoside]
p-nitrophenolate release, absorbance at 405 nm: -derived α-L-fucosidase was used as a positive control under the same conditions
